Holding throughout (assay type): functional
The subject of assay [1] is Heliothis virescens. The assay is described as follows: Insecticidal activity against tobacco budworm third instar larvae at 19.8 ug/cm2 applied on upper surface of circular leaf disk after 2 days.
Assay [2] concerns Heliothis virescens. Put plainly: Insecticidal activity against tobacco budworm third instar larvae at 19.8 ug/cm2 applied on upper surface of circular leaf disk after 6 days.
The subject of assay [3] is Heliothis virescens. Put plainly: Insecticidal activity against tobacco budworm third instar larvae at 6 ug/cm2 applied on upper surface of circular leaf disk after 2 days.
Assay [4] deals with Heliothis virescens. Put plainly: Insecticidal activity against tobacco budworm third instar larvae at 6 ug/cm2 applied on upper surface of circular leaf disk after 6 days.
Assay [5] concerns Heliothis virescens. The assay is described as follows: Insecticidal activity against tobacco budworm third instar larvae at 1.5 ug/cm2 applied on upper surface of circular leaf disk after 2 days.
Assay [6] concerns Heliothis virescens. Put plainly: Insecticidal activity against tobacco budworm third instar larvae at 1.5 ug/cm2 applied on upper surface of circular leaf disk after 6 days.
For assay [7], the system named is Spodoptera eridania. Put plainly: Insecticidal activity against southern armyworm third instar larvae at 19.8 ug/cm2 applied on upper surface of circular leaf disk after 2 days.
Assay [8] has as its system Spodoptera eridania. The assay is described as follows: Insecticidal activity against southern armyworm third instar larvae at 19.8 ug/cm2 applied on upper surface of circular leaf disk after 6 day.
In assay [9] the test system is Spodoptera eridania. The assay is described as follows: Insecticidal activity against southern armyworm third instar larvae at 6 ug/cm2 applied on upper surface of circular leaf disk after 2 days.
The test system of assay [10] is Spodoptera eridania. The assay is described as follows: Insecticidal activity against southern armyworm third instar larvae at 6 ug/cm2 applied on upper surface of circular leaf disk after 6 days.
Assay [11] relates to Spodoptera eridania. The assay is described as follows: Insecticidal activity against southern armyworm third instar larvae at 1.5 ug/cm2 applied on upper surface of circular leaf disk after 2 days.
Assay [12] deals with Spodoptera eridania. Put plainly: Insecticidal activity against southern armyworm third instar larvae at 1.5 ug/cm2 applied on upper surface of circular leaf disk after 6 days.
In assay [13] the test system is Epilachna varivestis. Put plainly: Insecticidal activity against mexican bean beetle third instar larvae at 19.8 ug/cm2 applied on upper surface of circular leaf disk after 2 days.
Assay [14] has as its system Epilachna varivestis. Put plainly: Insecticidal activity against mexican bean beetle third instar larvae at 19.8 ug/cm2 applied on upper surface of circular leaf disk after 6 days.
Assay [15] relates to Epilachna varivestis. The assay is described as follows: Insecticidal activity against mexican bean beetle third instar larvae at 6 ug/cm2 applied on upper surface of circular leaf disk after 2 days.
In assay [16] the test system is Epilachna varivestis. Put plainly: Insecticidal activity against mexican bean beetle third instar larvae at 6 ug/cm2 applied on upper surface of circular leaf disk after 6 days.
Assay [17] relates to Epilachna varivestis. Put plainly: Insecticidal activity against mexican bean beetle third instar larvae at 1.5 ug/cm2 applied on upper surface of circular leaf disk after 2 days.
For assay [18], the system named is Epilachna varivestis. Put plainly: Insecticidal activity against mexican bean beetle third instar larvae at 1.5 ug/cm2 applied on upper surface of circular leaf disk after 6 days.

For `C/C=C(\C)C(=O)O[C@H]1C[C@@H](OC(C)=O)[C@@]2(C(=O)OC)CO[C@H]3[C@@H](O)[C@@](C)([C@]45O[C@@]4(C)[C@@H]4C[C@H]5O[C@@H]5OC=C[C@@]54O)[C@H]4[C@]1(CO[C@]4(O)C(=O)OC)[C@@H]32` [AZADIRACHTIN A], the Activity in the assay with Heliothis virescens [1], in the assay on Heliothis virescens [2], in the assay with Heliothis virescens [3], with Heliothis virescens [4], with Heliothis virescens [5] and in the assay with Heliothis virescens [6] was 60% throughout. Moreover, the Activity is reported as 90% in the assay with Spodoptera eridania [7]; 90% in the assay with Spodoptera eridania [8]; 60% in the assay with Spodoptera eridania [9]; 60% with Spodoptera eridania [10]; 60% in the assay on Spodoptera eridania [11]; 30% in the assay with Spodoptera eridania [12]. Moreover, the Activity turned out to be 90% with Epilachna varivestis [13]; 90% with Epilachna varivestis [14]; 90% with Epilachna varivestis [15]; 90% in the assay with Epilachna varivestis [16]; 30% with Epilachna varivestis [17]; 60% in the assay on Epilachna varivestis [18].

On to `C=C1[C@@H]([C@@]2(C)[C@@H](OC(C)=O)CC(=O)O[C@](C)(COC(C)=O)[C@@H]2C(=O)OC)[C@@H](OC=O)[C@H](OC(=O)[C@H](O)[C@H](C)CC)[C@@]2(C)[C@H](c3ccoc3)CC(=O)[C@]12O` [PRIEURIANIN], for which the Activity was 60% in the assay on Heliothis virescens [1]; 60% in the assay with Heliothis virescens [2]; 30% in the assay with Heliothis virescens [3]; 60% with Heliothis virescens [4]; 30% in the assay on Heliothis virescens [5]; 0% in the assay with Heliothis virescens [6]. Further, the Activity is 30% in the assay with Spodoptera eridania [7]; 0% with Spodoptera eridania [8]; 0% in the assay with Spodoptera eridania [9]; 0% with Spodoptera eridania [10]; 0% in the assay on Spodoptera eridania [11]; 0% with Spodoptera eridania [12]. Moreover, the Activity amounted to 60% in the assay on Epilachna varivestis [13]; 60% with Epilachna varivestis [14]; 30% with Epilachna varivestis [15]; 30% in the assay with Epilachna varivestis [16]; 0% in the assay with Epilachna varivestis [17]; 0% in the assay on Epilachna varivestis [18].

On to `C=C1[C@H]([C@@]2(C)[C@@H](OC(C)=O)CC(=O)O[C@]3(C)COC(=O)C[C@H]23)[C@@H](OC=O)[C@H](OC(=O)CC(C)C)[C@@]2(C)[C@@H](c3ccoc3)CC(=O)[C@@]12O` [ROHITIUKIN], for which the Activity in the assay on Heliothis virescens [1] is listed as 0%; with Heliothis virescens [2], 30%; in the assay with Heliothis virescens [3], 0%; in the assay with Heliothis virescens [4], 0%; with Heliothis virescens [5], 0%; in the assay with Heliothis virescens [6] it was 0%. Also, the Activity in the assay on Spodoptera eridania [7], in the assay with Spodoptera eridania [8], in the assay with Spodoptera eridania [9], in the assay with Spodoptera eridania [10], in the assay with Spodoptera eridania [11] and in the assay with Spodoptera eridania [12] was 0% throughout. In addition, the Activity in the assay on Epilachna varivestis [13], in the assay on Epilachna varivestis [14], in the assay with Epilachna varivestis [15], with Epilachna varivestis [16], in the assay on Epilachna varivestis [17] and in the assay on Epilachna varivestis [18] was 0% each time.

With `C=C1[C@@H]([C@@]2(C)C=CC(=O)O[C@]3(C)COC(=O)C[C@H]23)[C@@H](OC=O)[C@H](OC(=O)C(O)C(C)CC)[C@@]2(C)[C@@H](c3ccoc3)C[C@H](OC(C)=O)[C@]12O` (some centres not stated) [ROHITIUKA 7], the Activity in the assay with Heliothis virescens [1] is given as 60%; in the assay with Heliothis virescens [2], 60%; in the assay with Heliothis virescens [3], 0%; in the assay with Heliothis virescens [4], 0%; in the assay on Heliothis virescens [5], 0%; in the assay on Heliothis virescens [6] it was 0%. The Activity in the assay on Spodoptera eridania [7], in the assay on Spodoptera eridania [8], in the assay on Spodoptera eridania [9], with Spodoptera eridania [10], in the assay with Spodoptera eridania [11] and in the assay on Spodoptera eridania [12] was 0% throughout. Also, the Activity in the assay on Epilachna varivestis [13], in the assay on Epilachna varivestis [14], with Epilachna varivestis [15], with Epilachna varivestis [16], in the assay on Epilachna varivestis [17] and in the assay on Epilachna varivestis [18] was 0% in each case.

For the origin of these results see ChEMBL document CHEMBL1151662, “Insect Antifeedant Activity of Four Prieurianin-Type Limonoids” (1985).
